Data from US11173162B2, “Bicyclic heterocycles as FGFR4 inhibitors” (Incyte Corporation, priority 2015, dated 2021).

Tested on: FGFR3 enzyme
Experiment: FGFR Enzymatic Assay (FRET peptide phosphorylation), FGFR3
Format: biochemical
Conditions: IC50 ratio showing FGFR3 selectivity; Table 2A, pre-incubated for 4 hours
Method: The inhibitor potency of the exemplified compounds was measured in an enzyme assay that measures peptide phosphorylation using FRET measurements to detect product formation. Inhibitors were serially diluted in DMSO and a volume of 0.5 μL was transferred to the wells of a 384-well plate.
GraphPad prism3 was used to analyze the data.

Row | FGFR1/FGFR3 | FGFR4/FGFR3 | Structure (SMILES)
1 | >5 | >1 | COc1cc(OC)c(F)c(N2Cc3cnc(-c4cn(CCC#N)nc4C)cc3C3(CC3)C2=O)c1F [Example 156, 3-(4-(2′-(2,6-difluoro-3,5-dimethoxyphenyl)-3′-oxo-2′,3′-dihydro-1′H-spiro[cyclopropane-1,4′-[2,7]naphthyridine]-6′-yl)-3-methyl-1H-pyrazol-1-yl)propanenitrile]
2 | >3 | >5 | COc1cc(OC)c(F)c(N2Cc3cnc(-c4cn(C)nc4C)cc3N(c3cc(F)cc(F)c3)C2=O)c1F [Example 103, 3-(2,6-difluoro-3,5-dimethoxyphenyl)-1-(3,5-difluorophenyl)-7-(1,3-dimethyl-1H-pyrazol-4-yl)-3,4-dihydropyrido[4,3-d]pyrimidin-2(1H)-one]
3 | >5 | >5 | COc1cc(OC)c(F)c(N2Cc3cnc(-c4cnn(C)c4)cc3C3(CC3)C2=O)c1F [Example 186, 2′-(2,6-difluoro-3,5-dimethoxyphenyl)-6′-(1-methyl-1H-pyrazol-4-yl)-1′,2′-dihydro-3′H-spiro[cyclopropane-1,4′-[2,7]naphthyridin]-3′-one]
4 | >3 | >5 | CCCn1cc(N2C(=O)N(c3c(F)c(OC)cc(OC)c3F)Cc3cnc(-c4cn(C)nc4C)cc32)cn1 [Example 132, 3-(2,6-difluoro-3,5-dimethoxyphenyl)-7-(1,3-dimethyl-1H-pyrazol-4-yl)-1-(1-propyl-1H-pyrazol-4-yl)-3,4-dihydropyrido[4,3-d]pyrimidin-2(1H)-one]
5 | >10 | >5 | COc1cc(OC)c(F)c(N2Cc3cnc(-c4cn(C)nc4C)cc3N(c3cncnc3)C2=O)c1F [Example 61, 3-(2,6-difluoro-3,5-dimethoxyphenyl)-7-(1,3-dimethyl-1H-pyrazol-4-yl)-1-(pyrimidin-5-yl)-3,4-dihydropyrido[4,3-d]pyrimidin-2(1H)-one]
6 | >5 | >1 | COc1cc(OC)c(F)c(N2Cc3cnc(-c4cn(Cc5cccnc5)nc4C)cc3C3(CC3)C2=O)c1F [Example 155, 2′-(2,6-difluoro-3,5-dimethoxyphenyl)-6′-(3-methyl-1-(pyridin-3-ylmethyl)-1H-pyrazol-4-yl)-1′H-spiro[cyclopropane-1,4′-[2,7]naphthyridin]-3′(2′H)-one]
7 | >5 | >5 | CCN1C(=O)N(c2c(F)c(OC)cc(OC)c2F)Cc2cnc(-c3ccc(N4CCOCC4)nc3)cc21 [Example 182, 3-(2,6-difluoro-3,5-dimethoxyphenyl)-1-ethyl-7-(6-morpholinopyridin-3-yl)-3,4-dihydropyrido[4,3-d]pyrimidin-2(1H)-one]
8 | >5 | >10 | COc1cc(OC)c(F)c(N2Cc3cnc(-c4cn(C)nc4C)cc3N(Cc3ccncn3)C2=O)c1F [Example 65, 3-(2,6-difluoro-3,5-dimethoxyphenyl)-7-(1,3-dimethyl-1H-pyrazol-4-yl)-1-(pyrimidin-4-ylmethyl)-3,4-dihydropyrido[4,3-d]pyrimidin-2(1H)-one]
9 | >3 | >3 | COc1cc(OC)c(F)c(N2Cc3cnc(-c4cn(C5CCN(C)C5)nc4C)cc3C3(CC3)C2=O)c1F (stereo not shown) [Example 163, 2′-(2,6-difluoro-3,5-dimethoxyphenyl)-6′-(3-methyl-1-(1-methylpyrrolidin-3-yl)-1H-pyrazol-4-yl)-1′H-spiro[cyclopropane-1,4′-[2,7]naphthyridin]-3′(2′H)-one]
10 | >1 | >5 | COc1cc(OC)c(F)c(N2Cc3cnc(-c4cn(C)nc4C)cc3N(c3ccc4ncsc4c3)C2=O)c1F [Example 41, 1-(1,3-benzothiazol-6-yl)-3-(2,6-difluoro-3,5-dimethoxyphenyl)-7-(1,3-dimethyl-1H-pyrazol-4-yl)-3,4-dihydropyrido[4,3-d]pyrimidin-2(1H)-one]
11 | >5 | >10 | COc1cc(OC)c(F)c(N2Cc3cnc(-c4cn(C)nc4C)cc3N(Cc3cnccn3)C2=O)c1F [Example 85, 3-(2,6-difluoro-3,5-dimethoxyphenyl)-7-(1,3-dimethyl-1H-pyrazol-4-yl)-1-(pyrazin-2-ylmethyl)-3,4-dihydropyrido[4,3-d]pyrimidin-2(1H)-one]
12 | >1 | >5 | COc1cc(OC)c(F)c(N2Cc3cnc(-c4cn(C)nc4C)cc3N(CC3CC3)C2=O)c1F [Example 29, 1-(cyclopropylmethyl)-3-(2,6-difluoro-3,5-dimethoxyphenyl)-7-(1,3-dimethyl-1H-pyrazol-4-yl)-3,4-dihydropyrido[4,3-d]pyrimidin-2(1H)-one]
13 | >10 | >10 | COc1cc(OC)c(F)c(N2Cc3cnc(-c4cn(C)nc4C)cc3N(c3ccncn3)C2=O)c1F [Example 45, 3-(2,6-difluoro-3,5-dimethoxyphenyl)-7-(1,3-dimethyl-1H-pyrazol-4-yl)-1-pyrimidin-4-yl-3,4-dihydropyrido[4,3-d]pyrimidin-2(1H)-one]
14 | >5 | >10 | COc1cc(OC)c(F)c(N2Cc3cnc(-c4cn(C)nc4C)cc3N(c3cccnc3)C2=O)c1F [Example 86, 3-(2,6-difluoro-3,5-dimethoxyphenyl)-7-(1,3-dimethyl-1H-pyrazol-4-yl)-1-(pyridin-3-yl)-3,4-dihydropyrido[4,3-d]pyrimidin-2(1H)-one]
15 | >10 | >5 | CCNC(=O)c1ccc(-c2cc3c(cn2)CN(c2c(F)c(OC)cc(OC)c2F)C(=O)N3CC)cn1 [Example 175, 5-(3-(2,6-difluoro-3,5-dimethoxyphenyl)-1-ethyl-2-oxo-1,2,3,4-tetrahydropyrido[4,3-d]pyrimidin-7-yl)-N-ethylpicolinamide]
16 | >5 | >10 | CCCNC(=O)c1ccc(-c2cc3c(cn2)CN(c2c(F)c(OC)cc(OC)c2F)C(=O)N3CC)cn1 [Example 179, 5-(3-(2,6-difluoro-3,5-dimethoxyphenyl)-1-ethyl-2-oxo-1,2,3,4-tetrahydropyrido[4,3-d]pyrimidin-7-yl)-N-propylpicolinamide]
17 | >3 | >5 | COc1cc(OC)c(F)c(N2Cc3cnc(-c4cn(C)nc4C)cc3N(c3ccccc3F)C2=O)c1F [Example 110, 3-(2,6-difluoro-3,5-dimethoxyphenyl)-7-(1,3-dimethyl-1H-pyrazol-4-yl)-1-(2-fluorophenyl)-3,4-dihydropyrido[4,3-d]pyrimidin-2(1H)-one]
18 | >3 | >5 | CCc1cnc(N2C(=O)N(c3c(F)c(OC)cc(OC)c3F)Cc3cnc(-c4cn(C)nc4C)cc32)cn1 [Example 106, 3-(2,6-difluoro-3,5-dimethoxyphenyl)-7-(1,3-dimethyl-1H-pyrazol-4-yl)-1-(5-ethylpyrazin-2-yl)-3,4-dihydropyrido[4,3-d]pyrimidin-2(1H)-one]
19 | >5 | >10 | COc1cc(OC)c(F)c(N2Cc3cnc(-c4cn(C)nc4C)cc3N(Cc3csc(C)n3)C2=O)c1F [Example 95, 3-(2,6-difluoro-3,5-dimethoxyphenyl)-7-(1,3-dimethyl-1H-pyrazol-4-yl)-1-((2-methylthiazol-4-yl)methyl)-3,4-dihydropyrido[4,3-d]pyrimidin-2(1H)-one]
20 | >3 | >5 | COc1ccc(N2C(=O)N(c3c(F)c(OC)cc(OC)c3F)Cc3cnc(-c4cn(C)nc4C)cc32)cc1 [Example 104, 3-(2,6-difluoro-3,5-dimethoxyphenyl)-7-(1,3-dimethyl-1H-pyrazol-4-yl)-1-(4-methoxyphenyl)-3,4-dihydropyrido[4,3-d]pyrimidin-2(1H)-one]
21 | >10 | >10 | COc1cc(OC)c(F)c(N2Cc3cnc(-c4cn(C)nc4C)cc3N(c3ccnnc3)C2=O)c1F [Example 57, 3-(2,6-difluoro-3,5-dimethoxyphenyl)-7-(1,3-dimethyl-1H-pyrazol-4-yl)-1-(pyridazin-4-yl)-3,4-dihydropyrido[4,3-d]pyrimidin-2(1H)-one]
22 | >5 | >5 | COc1cc(OC)c(F)c(N2Cc3cnc(-c4cnn(CCCN5CCOCC5)c4)cc3C3(CC3)C2=O)c1F [Example 151, 2′-(2,6-difluoro-3,5-dimethoxyphenyl)-6′-(1-(3-morpholinopropyl)-1H-pyrazol-4-yl)-1′H-spiro[cyclopropane-1,4′-[2,7]naphthyridin]-3′(2′H)-one]
23 | >10 | >3 | COc1cc(OC)c(F)c(N2Cc3cnc(-c4cnn(C5CCN(S(C)(=O)=O)C5)c4)cc3C3(CC3)C2=O)c1F (stereo not shown) [Example 147, 2′-(2,6-difluoro-3,5-dimethoxyphenyl)-6′-(1-(1-(methylsulfonyl)pyrrolidin-3-yl)-1H-pyrazol-4-yl)-1′H-spiro[cyclopropane-1,4′-[2,7]naphthyridin]-3′(2′H)-one]

Row | Structure (SMILES) | FGFR1/FGFR3 | FGFR4/FGFR3
24 | COc1cc(OC)c(F)c(N2Cc3cnc(-c4cn(C)nc4C)cc3N(c3ccc(F)c(F)c3)C2=O)c1F [Example 102, 3-(2,6-difluoro-3,5-dimethoxyphenyl)-1-(3,4-difluorophenyl)-7-(1,3-dimethyl-1H-pyrazol-4-yl)-3,4-dihydropyrido[4,3-d]pyrimidin-2(1H)-one] | >3 | >10
25 | COc1cc(OC)c(F)c(N2Cc3cnc(-c4cn(C)nc4C)cc3N(c3ccc(S(C)(=O)=O)cc3)C2=O)c1F [Example 98, 3-(2,6-difluoro-3,5-dimethoxyphenyl)-7-(1,3-dimethyl-1H-pyrazol-4-yl)-1-(4-(methylsulfonyl)phenyl)-3,4-dihydropyrido[4,3-d]pyrimidin-2(1H)-one] | >5 | >10
26 | COc1cc(OC)c(F)c(N2Cc3cnc(-c4cn(C5CCN(CC#N)C5)nc4C)cc3C3(CC3)C2=O)c1F (stereo not shown) [Example 154, 2-(3-(4-(2′-(2,6-difluoro-3,5-dimethoxyphenyl)-3′-oxo-2′,3′-dihydro-1′H-spiro[cyclopropane-1,4′-[2,7]naphthyridine]-6′-yl)-3-methyl-1H-pyrazol-1-yl)pyrrolidin-1-yl)acetonitrile] | >5 | >3
